In PMC9146163, “Novel Au Carbene Complexes as Promising Multi-Target Agents in Breast Cancer Treatment” (Pharmaceuticals, 2022):
Read-outs that look alike come from different tables or passages of the source.

Experiments:
[1] = tested on: NF-κB in MDA-MB-231 cells; test: NF-κB immunofluorescence, MDA-MB-231; type: cell-based, human; conditions: IC50 value, 24 h
Procedure: (§1) The MitoTracker Deep Red FM probe (MitoTracker Mitochondrion-Selective Probes, Invitrogen European Headquarters, Paisley, PA4 9RF, UK) was used for mitochondrial staining, as previously described. For immunofluorescence analysis, the cells were seeded and further processed, as reported by Iacopetta et al.. The primary antibodies used were: rabbit anti-β-Actin and vimentin (Santa Cruz Biotechnology, Dallas, TX, USA), mouse anti cytochrome c and NF-κB p65 (Abcam, Cambridge, UK), diluted 1:100 in bovine serum albumin (BSA) 2% overnight at 4 °C. The secondary antibodies were: Alexa Fluor® 488 conjugate goat-anti-rabbit and Alexa Fluor® 568 conjugate goat-anti-mouse (Thermo Fisher Scientific, MA, USA), diluted 1:500 and incubated for 2h at 37 °C. DAPI 0.2 μg/mL (Sigma Aldrich, Milan, Italy) was used for nuclei staining. […] All the images were acquired and processed using the LAS-X software.

MCF-10A cells = test: TUNEL assay, MCF-10A; conditions: IC50, 24 h
Procedure: TUNEL assay was employed to assess the cells’ apoptosis, following the manufacturer’s procedures (CF™488A TUNEL Assay Apoptosis Detection Kit, Biotium, Hayward, CA, USA). […] DAPI (Sigma, 0.2 µg/mL) was used for nuclei staining. A fluorescence microscope (Leica DM 6000) was used for fluorescence detection (20× magnification). All the images were processed using the LAS-X software. Images are representative of three independent experiments.
TUNEL assay in MCF-10A cells
Then they were exposed to the TdT enzyme and
visualized under a fluorescence microscope (20x magnification).

[2] = tested on: caspases 3/7, 8, and 9 in MCF-10A cells; test: Caspase-Glo assay, MCF-10A; type: cell-based, human; conditions: IC50 values, 24 h; vs vehicle
Procedure: (§2) The activities of caspases 3/7, 8, and 9 were measured by using the Caspase-Glo Assay according to the manufacturer’s guidelines (Caspase-Glo 3/7, 8, and 9 Assay Systems, Promega Corporation, Madison, WI, USA), as already described. The luminescence was detected in a plate-reading luminometer (Synergy H1 Hybrid Reader, BioTek) for 30 min to 3 h (λex/em = 490/570 nm). Results were reported as signal-to-noise ratio (background was determined from the culture medium without cells). The experiments were performed in triplicate.
H: Figure S4. Caspases activity in MCF-10A cells
Caspase 3/7 Caspase 8 Caspase 9
Figure S4. Caspases activity.
between th e vehicl e-treated cells, us ed as control, and the cells treated with compounds 1 and 6. Both
The data are representative of […]

NF-κB in MCF-10A cells = test: NF-κB immunofluorescence, MCF-10A; type: cell-based, human
Procedure: as §1
L: Figure S6. NF-κB expression in MCF-10A cells
CTRL cells and in the cells exposed to compounds 1 and 6 NF-κB is localized within the cytoplasm and nucleus. Panels A, nuclear stain with DAPI (λex/em= 350/460 nm); panels B, Alexa Fluor CF 488 (λex/em= 490/515 nm); panels C, overlay channels. Images were acquired at 40x magnification and repres entative fields are shown.

Hek-293 cells = test: MTT assay, normal Hek-293; type: cell-based, human; conditions: up to the concentration of 200 μM
[3] = molecular target: T1, human topoisomerase I (hTopo I) (Homo sapiens, UniProt P11387); test: hTopo I relaxation assay; type: biochemical; conditions: 1 μM; supercoiled pHOT1, agarose gel
T1 construct: purchased TopoGEN, Port Orange, FL, USA

β-actin in MCF-10A cells = test: Actin immunofluorescence, MCF-10A; type: cell-based, human
Procedure: as §1
E: Figure S1. Actin immunofluorescence studies in MCF-10A cells […]
Figure S1. Actin immunofluorescence studies. M CF-10A cells were treat ed with compounds 1 and […]
treatment, the cells were methanol fixed, incubated with primary and secondary antibodies, stained with DAPI and observed and imaged under the inverted fluorescence microscope at 20x […]
A: nuclear stain with DAPI (λex/λem = 350/460 nm); Panels B: β-actin ([…]); Panels C: show a merge. R epresentative fields are shown.

[4] = molecular target: T2, Labeled Rabbit Muscle Actin (Oryctolagus cuniculus, UniProt P68135); test: In vitro actin polymerization assay; type: biochemical; conditions: 5 µM
T2 construct: purchased Abcam (Actin Polymerization/Depolymerization Assay Kit)
Procedure: The ability of the tested compounds to interfere with the actin polymerization and depolymerization reaction was measured using an Actin Polymerization/Depolymerization Assay Kit purchased from Abcam, following the manufacturer’s instructions. […] For the polymerization assay, reconstituted actin was mixed with supplemented Buffer G and samples in a white 96-well plate and then the polymerization reaction was induced with the addition of the Buffer P supplemented with 10 mM ATP. The solution was mixed and the data acquisition started. For the Actin Depolymerization Assay, supplemented Buffers P and G were mixed and incubated in a white 96-well plate at room temperature for one hour to polymerize the actin, protected from light. Then samples were added and the data acquisition started. Latrunculin A and Cytochalasin B were used as control molecules at a concentration of 5 μM. For both the assays, the assembly of actin filaments was determined by measuring the fluorescence (Ex/Em: 365/410 nm) in kinetic mode for 1 h at room temperature using a microplate reader.

MDA-MB-231 cells = test: MTT assay, MDA-MB-231; type: cell-based, human; conditions: MTT, 72 h; mean ± SD; read-out: IC50 MDA-MB-231
Procedure: The five employed cell lines were purchased from American Type Culture Collection (ATCC, Manassas, VA, USA) and maintained as already reported. MCF-7, MDA-MB-231, MCF-10A and Hek-293 were cultured, as indicated by Iacopetta et al.. SkBr3 cells were maintained in DMEM high glucose, supplemented with 10% FBS and 100 μg/mL penicillin/streptomycin.
MTT assays [Sigma Aldrich (St.Louis, MO, USA)] were used in order to determine the in vitro anticancer activities of all the target compounds, as already reported.The compounds were tested at different concentrations (0.1-1-10-20-40 µM) for 72 h. Results are represented as percent (%) of basal and the IC50 values were calculated using GraphPad Prism 9 (GraphPad Software, La Jolla, CA, USA).

β-actin in MCF-7 cells = test: Actin immunofluorescence, MCF-7; type: cell-based, human; conditions: 24 h; compound 6 at its IC50 value, LA 0.1 µM
Procedure: as §1

[5] = tested on: cytochrome c in MCF-7 cells; test: Mitochondria staining and cytochrome c detection, MCF-7; type: cell-based, human; conditions: IC50 value, 24 h
Procedure: as §1

NF-κB in MCF-7 cells = test: NF-κB immunofluorescence, MCF-7; type: cell-based, human; conditions: IC50 value, 24 h
Procedure: as §1

vimentin in MCF-7 cells = test: Vimentin expression (immunofluorescence), MCF-7; type: cell-based, human; conditions: fluorescence quantification; IC50 value, 24 h
Procedure: as §1
Protein lysates underwent the SDS-PAGE process, as already defined. Then lysates were resolved on a 7.5% SDS polyacrylamide gel, transferred to a nitrocellulose membrane, and probed with antibodies against vimentin and GAPDH (Santa Cruz Biotechnology, Dallas, TX, USA). […] The images are representative of three independent experiments.

[6] = tested on: caspases 3/7, 8, and 9 in MCF-7 cells; test: Caspase-Glo assay, MCF-7; type: cell-based, human; conditions: IC50 value, 24 h; vs vehicle
Procedure: as §2

T1 sequence (P11387 whole entry): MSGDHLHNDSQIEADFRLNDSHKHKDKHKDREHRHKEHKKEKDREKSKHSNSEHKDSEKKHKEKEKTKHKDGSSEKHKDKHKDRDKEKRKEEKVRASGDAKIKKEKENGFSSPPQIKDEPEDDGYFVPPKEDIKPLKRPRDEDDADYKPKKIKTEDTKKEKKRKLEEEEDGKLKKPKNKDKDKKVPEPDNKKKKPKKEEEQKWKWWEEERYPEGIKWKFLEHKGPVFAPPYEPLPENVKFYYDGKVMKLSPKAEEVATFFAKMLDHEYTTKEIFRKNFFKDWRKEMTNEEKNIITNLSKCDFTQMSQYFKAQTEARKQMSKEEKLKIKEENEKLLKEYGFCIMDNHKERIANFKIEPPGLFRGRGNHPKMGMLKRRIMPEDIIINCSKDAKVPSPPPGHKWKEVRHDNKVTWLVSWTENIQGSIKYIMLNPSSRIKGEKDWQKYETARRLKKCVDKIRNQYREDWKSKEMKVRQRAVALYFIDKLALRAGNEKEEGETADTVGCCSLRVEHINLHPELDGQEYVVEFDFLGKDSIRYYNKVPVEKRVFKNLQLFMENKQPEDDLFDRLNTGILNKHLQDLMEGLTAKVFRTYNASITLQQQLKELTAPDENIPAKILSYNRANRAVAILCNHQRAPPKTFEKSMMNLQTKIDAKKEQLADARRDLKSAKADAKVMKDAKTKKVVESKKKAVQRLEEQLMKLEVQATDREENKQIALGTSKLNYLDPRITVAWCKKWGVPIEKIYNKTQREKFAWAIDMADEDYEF

Row | SMILES | NF-κB translocation, MDA-MB-231 [1] | apoptosis (TUNEL), MCF-10A (MCF-10A cells) | caspases 3/7, 8 and 9 activity levels, MCF-10A [2] | NF-κB localization, MCF-10A (NF-κB in MCF-10A cells) | cytotoxicity against the normal Hek-293 cells (in words) (Hek-293 cells) | inhibition of hTopo I supercoil relaxing activity [3] | actin organization in MCF-10A cells (β-actin in MCF-10A cells; 24 h, compounds at their IC50 value, LA 0.1 μM) | effect on actin polymerization (in words) [4] | actin polymerization curve, final value ([4]; end of 1 h kinetic read, control about 37.000 RFU) [RFU] | IC50 (MDA-MB-231 cells) [µM] | actin organization in MCF-7 cells (β-actin in MCF-7 cells) | actin organization in MCF-10A cells (β-actin in MCF-10A cells) | cytochrome c localization, MCF-7 [5] | NF-κB translocation, MCF-7 (NF-κB in MCF-7 cells) | reduction of vimentin expression with respect to the control, MCF-7 (vimentin in MCF-7 cells) | caspase-3 and -7 activity, MCF-7 [6] | caspase-8 activity, MCF-7 [6] | caspase-9 activity, MCF-7 [6]
1 | Cn1ccn(CC([O-])c2ccccc2)[c]1=[Au+]=[c]1n(C)ccn1CC([O-])c1ccccc1.[Cl-].[Na+].[Na+] (stereo not drawn) [Compound 1] | reduced the translocation of NF-κB from the cytoplasm to the nucleus | No apoptosis was detected | No differences | localized within the cytoplasm and nucleus | complete lack of cytotoxicity | totally inhibit | normal | inhibiting activity higher that CB but lesser than LA | 17000 | 15.8 ± 0.7 |  |  |  |  |  |  |  | 
2 | CC(=O)[O-].Cn1c(Cl)c(Cl)n(CC(O)c2ccccc2)[c]1=[Au+]=[c]1n(C)c(Cl)c(Cl)n1CC(O)c1ccccc1 (stereo not drawn) [Compound 6, Bis [4,5-dichloro-(N-methyl, N’(2-hydroxy-2-phenyl-ethyl)imidazole-2-ylidine]gold(I)] acetate] |  | No apoptosis was detected | No differences | localized within the cytoplasm and nucleus |  | totally inhibit |  | inhibiting activity higher that CB but lesser than LA |  | 16.8 ± 1.2 | actin bundles appeared thicker and dramatically packed into the cytoplasm | normal | cytochrome c is localized within mitochondria | reduced the translocation of NF-κB from the cytoplasm to the nucleus | two-fold | clear increase | significant rise | no increase
